Series [1] can be described thus: Inhibition of NP-40-induced beta-haematin formation after 5 to 6 hrs hrs by UV-vis spectroscopic analysis. Format: physicochemical.
In another series the test system is CHO. Nature of the series: Cytotoxicity against CHO cells by MTT assay. Format: cell-based. The note with it: Cricetulus griseus. For orientation: Tetrazolium dyes change colour on reduction, which living cells bring about.

As usually defined, the IC50 is the concentration at which inhibition is half-maximal. Low values mean greater potency in that assay, high ones weaker potency in that assay. `CCN(CC)Cc1cc(Nc2ccnc3cc(Cl)ccc23)ccc1O` registered an IC50 in series [1] of 6.8 µM. That is a single-digit micromolar value.

In the case of `CC[C@H]1CN2CCc3cc(OC)c(OC)cc3[C@@H]2C[C@@H]1C[C@H]1NCCc2cc(OC)c(OC)cc21` [EMETINE], the IC50 in the series with CHO was 0.041 µM.

Consider `CCN(CC)CCCC(C)Nc1ccnc2cc(Cl)ccc12` (stereo not drawn) [CHLOROQUINE], for which the IC50 in series [1] turned out to be 18.2 µM.

Values taken from ChEMBL document CHEMBL2434909, “In vitro antimalarial activity, β-haematin inhibition and structure-activity relationships in a series of quinoline triazoles” (Eur J Med Chem, 2013).
